Test results published in patent publication US10457654B2 (GENENTECH, INC., priority 2017, dated 2019).
Where a name gives a salt, the structure may show the parent alone.

target: hNav1.7 (Homo sapiens (Human), UniProt Q15858); assay: Tritiated compound binding to membranes from cells expressing hNav1.7 and the β1 subunit, competitive binding (LBA, Ex. 243A); conditions: 100 pM [3H]compound, 18 h, room temperature; read-out: Nav1.7 (LBA) (Ex. 243A)
Protocol: Tritiated Compound Binding to Membranes Isolated from Cells that Heterologously Express hNav1.7 and the β1 Subunit
Preparation of membranes containing recombinantly expressed sodium channels: Frozen recombinant cell pellets were thawed on ice and diluted to 4 times the cell pellet weight with ice cold 50 mM Tris HCl, pH 7.4 buffer. The cell suspensions were homogenized on ice using a motorized glass dounce homogeniser. Homogenates were further diluted 8.4 times with ice cold 50 mM Tris HCl, pH 7.4 buffer and then centrifuged at 200×g at 4° C. for 15 min. The supernatants were collected and centrifuged at 10000×g at 4° C. for 50 min. […] The homogenized membranes were then processed through a syringe equipped with a 26 gauge needle. Protein concentrations were determined by Bradford Assay and the membranes were stored at −80° C.
Radioligand Binding Studies: Saturation experiments. A competitive NaV1.7 inhibitor having a methyl group was tritiated. Three tritiums were incorporated in place of methyl hydrogens to generate [^3H]compound. Binding of this radioligand was performed in 5 mL borosilicate glass test tubes at room temperature. […] Non-specific binding was determined in the presence of 1 μM unlabeled compound. After 18h, the reactants were filtered through GF/C glass fiber filters presoaked in 0.5% w/v polyethylene imine. […] [^3H]compound bound to filters was quantified by liquid scintillation counting.
Competitive binding experiments: Binding reactions were performed in 96-well polypropylene plates at room temperature for 18h. In 360 μL, membranes were incubated with 100 pM [^3H]compound and increasing concentrations of Test Compound. Non-specific binding was defined in the presence of 1 μM unlabeled compound. Reactions were transferred and filtered through 96-well glass fiber/C filter plates presoaked with 0.5% polyethylene imine. The filtered reactions were washed 5 times with 200 μL ice cold buffer containing 0.25% BSA. Bound radioactivity was determined by liquid scintillation counting.
Data Analysis: For saturation experiments, non-specific binding was subtracted from total binding to provide specific binding and these values were recalculated in terms of pmol ligand bound per mg protein. Saturation curves were constructed and dissociation constants were calculated using the single site ligand binding model: Beq=(Bmax*X)/(X+Kd), where Beq is the amount of ligand bound at equilibrium, Bmax is the maximum receptor density, Kd is the dissociation constant for the ligand, and X is the free ligand concentration. For competition studies percent inhibition was determined and IC50 values were calculated using a 4 parameter logistic model (% inhibition=(A+((B−A)/(1+((x/C)^D)))) using XLfit, where A and B are the maximal and minimum inhibition respectively, C is the IC50 concentration and D is the (Hill) slope.

Chain of hNav1.7 (Q15858 whole entry, looked up): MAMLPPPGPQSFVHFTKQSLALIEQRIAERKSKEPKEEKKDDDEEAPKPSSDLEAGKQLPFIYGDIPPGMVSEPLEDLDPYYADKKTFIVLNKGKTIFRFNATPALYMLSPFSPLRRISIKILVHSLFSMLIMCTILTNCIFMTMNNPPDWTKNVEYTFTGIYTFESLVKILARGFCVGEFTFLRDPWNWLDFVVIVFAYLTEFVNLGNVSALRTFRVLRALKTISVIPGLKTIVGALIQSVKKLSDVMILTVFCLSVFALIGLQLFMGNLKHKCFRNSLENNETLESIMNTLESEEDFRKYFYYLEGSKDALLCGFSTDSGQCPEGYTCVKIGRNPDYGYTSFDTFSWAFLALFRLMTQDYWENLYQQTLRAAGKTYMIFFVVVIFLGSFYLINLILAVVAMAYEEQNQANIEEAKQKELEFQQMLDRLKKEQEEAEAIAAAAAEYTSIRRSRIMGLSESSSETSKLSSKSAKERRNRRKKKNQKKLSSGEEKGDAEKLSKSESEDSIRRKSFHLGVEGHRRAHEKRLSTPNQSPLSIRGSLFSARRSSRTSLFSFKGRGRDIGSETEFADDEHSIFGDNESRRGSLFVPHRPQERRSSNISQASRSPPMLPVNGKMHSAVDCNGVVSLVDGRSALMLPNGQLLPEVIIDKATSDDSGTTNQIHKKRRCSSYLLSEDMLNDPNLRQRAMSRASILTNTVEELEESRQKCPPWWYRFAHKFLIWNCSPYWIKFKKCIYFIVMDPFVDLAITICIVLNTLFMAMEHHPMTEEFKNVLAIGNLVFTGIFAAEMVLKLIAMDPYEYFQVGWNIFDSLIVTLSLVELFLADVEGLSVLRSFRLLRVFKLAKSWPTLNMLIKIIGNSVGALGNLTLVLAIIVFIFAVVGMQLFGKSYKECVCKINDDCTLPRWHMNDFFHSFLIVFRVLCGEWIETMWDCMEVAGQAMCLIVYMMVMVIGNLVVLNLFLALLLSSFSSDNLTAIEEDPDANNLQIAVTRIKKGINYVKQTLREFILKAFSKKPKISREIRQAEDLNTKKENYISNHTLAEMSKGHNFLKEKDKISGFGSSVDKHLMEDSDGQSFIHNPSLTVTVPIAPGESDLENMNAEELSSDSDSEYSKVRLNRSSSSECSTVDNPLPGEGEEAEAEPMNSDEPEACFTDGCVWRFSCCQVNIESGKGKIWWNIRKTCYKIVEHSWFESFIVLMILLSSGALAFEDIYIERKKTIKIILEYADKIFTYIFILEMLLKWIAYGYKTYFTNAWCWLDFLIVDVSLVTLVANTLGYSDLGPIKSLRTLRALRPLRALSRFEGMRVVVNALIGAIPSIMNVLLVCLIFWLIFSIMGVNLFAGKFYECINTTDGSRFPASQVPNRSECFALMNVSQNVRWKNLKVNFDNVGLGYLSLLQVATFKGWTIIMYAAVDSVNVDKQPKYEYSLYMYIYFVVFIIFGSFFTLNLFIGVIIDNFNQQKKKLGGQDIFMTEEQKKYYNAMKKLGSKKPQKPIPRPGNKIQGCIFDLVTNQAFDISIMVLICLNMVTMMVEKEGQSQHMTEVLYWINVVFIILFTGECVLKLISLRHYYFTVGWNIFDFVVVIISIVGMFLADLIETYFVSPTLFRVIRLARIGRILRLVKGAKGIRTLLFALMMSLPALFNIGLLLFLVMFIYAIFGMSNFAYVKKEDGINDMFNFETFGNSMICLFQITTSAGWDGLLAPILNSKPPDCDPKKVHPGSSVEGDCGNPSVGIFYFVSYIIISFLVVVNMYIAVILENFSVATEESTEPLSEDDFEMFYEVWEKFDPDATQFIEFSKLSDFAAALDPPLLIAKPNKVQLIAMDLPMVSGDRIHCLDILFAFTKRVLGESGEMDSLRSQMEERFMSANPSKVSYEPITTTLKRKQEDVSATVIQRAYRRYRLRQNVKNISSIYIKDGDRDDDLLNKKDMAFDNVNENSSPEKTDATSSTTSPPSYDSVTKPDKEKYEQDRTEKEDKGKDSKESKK
Chain of hNav1.7 (Q07699 whole entry partner, looked up): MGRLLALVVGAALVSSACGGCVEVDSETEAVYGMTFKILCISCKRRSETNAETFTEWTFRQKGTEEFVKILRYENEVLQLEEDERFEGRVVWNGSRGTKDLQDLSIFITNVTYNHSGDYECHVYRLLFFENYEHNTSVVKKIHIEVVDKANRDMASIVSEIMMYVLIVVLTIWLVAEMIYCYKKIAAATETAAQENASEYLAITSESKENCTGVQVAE

| Structure (SMILES) | IC50 |
| --- | --- |
| O=S(=O)(Nc1nccs1)c1cc(Cl)c(N[C@H]2CCCC[C@@H]2N2CCC2)cc1F [Example 21, 4-(((1S,2S)-2-(azetidin-1-yl)cyclohexyl)amino)-5-chloro-2-fluoro-N-(thiazol-2-yl)benzenesulfonamide] | 214 nM |
| CN(C)[C@H]1CCC[C@@H]1Nc1cc(F)c(S(=O)(=O)Nc2nccs2)cc1Cl [Example 12, 5-chloro-4-(((1S,2S)-2-(dimethylamino)cyclopentyl)amino)-2-fluoro-N-(thiazol-2-yl)benzenesulfonamide] | 165 nM |
| Cc1csc(NS(=O)(=O)c2cc(Cl)c(N[C@H]3CCCC[C@@H]3N(C)C)cc2F)n1 [Example 27, 5-chloro-4-(((1 S,2S)-2-(dimethylamino)cyclohexyl)amino)-2-fluoro-N-(4-methylthiazol-2-yl)benzenesulfonamide formate] | 149 nM |
| CN(C)[C@H]1CCCC[C@@H]1Nc1cc(F)c(S(=O)(=O)Nc2nccs2)cc1Cl [Example 2, 5-chloro-4-(((1S,2S)-2-(dimethylamino)cyclohexyl)amino)-2-fluoro-N-(thiazol-2-yl)benzenesulfonamide] | 38.2 nM |
| CN(C)[C@H]1CCCC[C@@H]1Nc1cc(F)c(S(=O)(=O)Nc2nccs2)cc1Br [Example 14, 5-bromo-4-[[(1S,2S)-2-(dimethylamino)cyclohexyl]amino]-2-fluoro-N-thiazol-2-yl-benzenesulfonamide] | 21.9 nM |
| CN(C)[C@H]1CCCC[C@@H]1Nc1cc(F)c(S(=O)(=O)Nc2ncc(Cl)s2)cc1Cl [Example 26, 5-chloro-N-(5-chlorothiazol-2-yl)-4-(((1 S,2S)-2-(dimethylamino)cyclohexyl)amino)-2-fluorobenzenesulfonamide] | 41.5 nM |
| CN[C@H]1CCCC[C@@H]1N(C)c1cc(F)c(S(=O)(=O)Nc2nccs2)cc1Cl [Example 20, 5-chloro-2-fluoro-4-(methyl((1S,2S)-2-(methylamino)cyclohexyl)amino)-N-(thiazol-2-yl)benzenesulfonamide] | 211 nM |

same assay, conditions: 100 pM [3H]compound, 18 h, room temperature; read-out: Nav1.7 LBA (Ex. 243A) IC50

| Structure (SMILES) | IC50 |
| --- | --- |
| CC1CCCN1[C@H]1CCCC[C@@H]1Nc1cc(F)c(S(=O)(=O)Nc2nccs2)cc1Cl (stereo partly drawn) [Example 44, 5-chloro-2-fluoro-4-(((1 S,2S)-2-(2-methylpyrrolidin-1-yl)cyclohexyl)amino)-N-(thiazol-2-yl)benzenesulfonamide] | 74.4 nM |
| CN(C)[C@@H]1C[C@H](C(F)(F)F)CC[C@H]1Nc1cc(F)c(S(=O)(=O)Nc2nccs2)cc1Cl [Example 36, 5-chloro-4-(((1R,2R,4R)-2-(dimethylamino)-4-(trifluoromethyl)cyclohexyl)amino)-2-fluoro-N-(thiazol-2-yl)benzenesulfonamide] | 93.6 nM |
| CCCN(C)[C@H]1CCCC[C@@H]1Nc1cc(F)c(S(=O)(=O)Nc2nccs2)cc1Cl [Example 29, 5-chloro-2-fluoro-4-(((1S,2S)-2-(methyl(propyl)amino)cyclohexyl)amino)-N-(thiazol-2-yl)benzenesulfonamide] | 60.1 nM |
| CCN[C@H]1CCCC[C@@H]1Nc1cc(F)c(S(=O)(=O)Nc2cccc(F)n2)cc1Cl [Example 73, 5-chloro-4-(((1S,2S)-2-(ethylamino)cyclohexyl)amino)-2-fluoro-N-(6-fluoropyridin-2-yl)benzenesulfonamide] | 19.7 nM |
| CN(C1COC1)[C@H]1CCCC[C@@H]1Nc1cc(F)c(S(=O)(=O)Nc2nccs2)cc1Cl [Example 97, 5-chloro-2-fluoro-4-(((1S,2S)-2-(methyl(oxetan-3-yl)amino)cyclohexyl)amino)-N-(thiazol-2-yl)benzenesulfonamide] | 36.4 nM |
| O=S(=O)(Nc1nccs1)c1cc(Cl)c(N[C@H]2CCCC[C@@H]2N2CCCCC2)cc1F [Example 70, 5-chloro-2-fluoro-4-(((1S,2S)-2-(piperidin-1-yl)cyclohexyl)amino)-N-(thiazol-2-yl)benzenesulfonamide formate] | 3.46 nM |
| O=S(=O)(Nc1nccs1)c1cc(Cl)c(N[C@H]2CCCC[C@@H]2N2CC[C@H](O)C2)cc1F [Example 67, 5-chloro-2-fluoro-4-(((1S,2S)-2-((S)-3-hydroxypyrrolidin-1-yl)cyclohexyl)amino)-N-(thiazol-2-yl)benzenesulfonamide] | 17.3 nM |
| CCN[C@H]1CCCC[C@@H]1Nc1cc(F)c(S(=O)(=O)Nc2nccs2)cc1C1CC1 [Example 64, 5-cyclopropyl-4-(((1S,2S)-2-(ethylamino)cyclohexyl)amino)-2-fluoro-N-(thiazol-2-yl)benzenesulfonamide formate] | 11.6 nM |
| CN(C)[C@H]1CCCC[C@@H]1Nc1cc(F)c(S(=O)(=O)Nc2cccc(Cl)n2)cc1Cl [Example 85, 5-chloro-N-(6-chloropyridin-2-yl)-4-(((1S,2S)-2-(dimethylamino)cyclohexyl)amino)-2-fluorobenzenesulfonamide] | 252 nM |
| CCN[C@H]1CCCC[C@@H]1Oc1cc(F)c(S(=O)(=O)Nc2nccs2)cc1Cl [Example 42, 5-chloro-4-(((1S,2S)-2-(ethylamino)cyclohexyl)oxy)-2-fluoro-N-(thiazol-2-yl)benzenesulfonamide] | 27.2 nM |
| CN[C@H]1CCCC[C@@H]1Nc1cc(F)c(S(=O)(=O)Nc2nccs2)cc1Br [Example 50, 5-bromo-2-fluoro-4-(((1S,2S)-2-(methylamino)cyclohexyl)amino)-N-(thiazol-2-yl)benzenesulfonamide formate] | 58.4 nM |
| CN(C)[C@H]1CC[C@H](C(F)(F)F)C[C@@H]1Nc1cc(F)c(S(=O)(=O)Nc2nccs2)cc1Cl [Example 75, 5-chloro-4-(((1S,2S,5S)-2-(dimethylamino)-5-(trifluoromethyl)cyclohexyl)amino)-2-fluoro-N-(thiazol-2-yl)benzenesulfonamide] | 37.9 nM |
| CN(C)[C@H]1CCCC[C@@H]1N1CCOc2cc(S(=O)(=O)Nc3nccs3)ccc21 [Example 54, 4-((1 S,2S)-2-(dimethylamino)cyclohexyl)-N-(thiazol-2-yl)-3,4-dihydro-2H-benzo[b][1,4]oxazine-7-sulfonamide] | 97.9 nM |
| CN(C[C@H](O)C(F)(F)F)[C@H]1CCCC[C@@H]1Nc1cc(F)c(S(=O)(=O)Nc2nccs2)cc1Cl [Example 94, 5-chloro-2-fluoro-4-(((1S,2S)-2-(methyl((S)-3,3,3-trifluoro-2-hydroxypropyl)amino)cyclohexyl)amino)-N-(thiazol-2-yl)benzenesulfonamide] | 31.3 nM |
| CN(C)[C@@H]1CC[C@H](c2cccc(C(F)(F)F)c2)C[C@H]1Nc1cc(F)c(S(=O)(=O)Nc2nccs2)cc1Cl [Example 103, 5-chloro-4-(((1R,2R,5S)-2-(dimethylamino)-5-(3-(trifluoromethyl)phenyl)cyclohexyl)amino)-2-fluoro-N-(thiazol-2-yl)benzenesulfonamide] | 32.2 nM |
| CN[C@H]1CCCC[C@@H]1Nc1cc(F)c(S(=O)(=O)Nc2nccs2)cc1C1CC1 [Example 51, 5-cyclopropyl-2-fluoro-4-(((1S,2S)-2-(methylamino)cyclohexyl)amino)-N-(thiazol-2-yl)benzenesulfonamide formate] | 75.6 nM |
| CN(C)[C@H]1CCCC[C@@H]1Nc1cc(F)c(S(=O)(=O)Nc2cscn2)cc1Cl [Example 46, 5-chloro-4-(((1S,2S)-2-(dimethylamino)cyclohexyl)amino)-2-fluoro-N-(thiazol-4-yl)benzenesulfonamide] | 770 nM |
| CN(C1CNC1)[C@H]1CCCC[C@@H]1Nc1cc(F)c(S(=O)(=O)Nc2cccc(F)n2)cc1Cl [Example 55, 4-(((1S,2S)-2-(azetidin-3-yl(methyl)amino)cyclohexyl)amino)-5-chloro-2-fluoro-N-(6-fluoropyridin-2-yl)benzenesulfonamide] | 7.38 nM |
| CC(C)N(C)[C@H]1CCCC[C@@H]1Nc1cc(F)c(S(=O)(=O)Nc2nccs2)cc1Cl [Example 33, 5-chloro-2-fluoro-4-(((1S,2S)-2-(isopropyl(methyl)amino)cyclohexyl)amino)-N-(thiazol-2-yl)benzenesulfonamide] | 82.4 nM |
| CN(C)[C@H]1CCCC[C@@H]1Nc1cc(F)c(S(=O)(=O)Nc2ccncn2)cc1C1CC1 [Example 69, 5-cyclopropyl-4-(((1S,2S)-2-(dimethylamino)cyclohexyl)amino)-2-fluoro-N-(pyrimidin-4-yl)benzenesulfonamide formate] | 296 nM |
| CN(C)[C@H]1C[C@@H](C(F)(F)F)CC[C@@H]1Nc1cc(F)c(S(=O)(=O)Nc2nccs2)cc1Cl [Example 82, 5-chloro-4-(((1S,2S,4S)-2-(dimethylamino)-4-(trifluoromethyl)cyclohexyl)amino)-2-fluoro-N-(thiazol-2-yl)benzenesulfonamide] | 3.35 nM |
